Test results published in ChEMBL document CHEMBL1154364, “2-Benzimidazolyl-9-(chroman-4-yl)-purinone derivatives as JAK3 inhibitors” (Bioorg Med Chem Lett, 2009).

Biological target: Tyrosine-protein kinase JAK2 (Homo sapiens, UniProt O60674)
Sequence (O60674 whole entry): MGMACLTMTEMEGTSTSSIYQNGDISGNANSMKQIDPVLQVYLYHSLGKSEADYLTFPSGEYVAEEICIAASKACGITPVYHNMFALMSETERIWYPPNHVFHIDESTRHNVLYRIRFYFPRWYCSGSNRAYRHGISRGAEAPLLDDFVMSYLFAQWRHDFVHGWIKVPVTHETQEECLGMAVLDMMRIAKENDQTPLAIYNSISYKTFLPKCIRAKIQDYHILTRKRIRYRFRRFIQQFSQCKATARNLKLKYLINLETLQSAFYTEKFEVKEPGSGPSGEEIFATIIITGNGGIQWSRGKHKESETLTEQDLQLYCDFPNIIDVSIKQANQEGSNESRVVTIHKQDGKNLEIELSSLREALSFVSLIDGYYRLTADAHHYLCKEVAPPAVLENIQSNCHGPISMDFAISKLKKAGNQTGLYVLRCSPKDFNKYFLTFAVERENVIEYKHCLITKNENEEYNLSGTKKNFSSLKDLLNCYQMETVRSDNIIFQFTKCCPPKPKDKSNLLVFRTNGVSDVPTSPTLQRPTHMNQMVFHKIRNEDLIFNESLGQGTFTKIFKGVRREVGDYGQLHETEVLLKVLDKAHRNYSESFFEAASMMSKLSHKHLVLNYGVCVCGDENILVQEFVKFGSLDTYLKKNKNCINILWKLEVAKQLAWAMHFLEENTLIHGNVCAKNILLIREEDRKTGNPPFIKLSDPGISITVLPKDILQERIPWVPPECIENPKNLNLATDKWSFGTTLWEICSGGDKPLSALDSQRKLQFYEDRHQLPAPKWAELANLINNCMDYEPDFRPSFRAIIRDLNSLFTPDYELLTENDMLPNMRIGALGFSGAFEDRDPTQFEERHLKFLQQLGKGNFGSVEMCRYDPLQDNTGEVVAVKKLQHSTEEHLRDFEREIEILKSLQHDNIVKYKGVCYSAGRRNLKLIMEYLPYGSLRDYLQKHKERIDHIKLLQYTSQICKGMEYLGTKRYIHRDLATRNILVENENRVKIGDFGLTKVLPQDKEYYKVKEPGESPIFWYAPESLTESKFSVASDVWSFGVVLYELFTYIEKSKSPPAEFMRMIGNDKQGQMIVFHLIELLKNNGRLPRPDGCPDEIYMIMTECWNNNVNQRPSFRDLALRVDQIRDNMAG
Description: Inhibition of human JAK2 (532-1132) by time resolved fluorescence assay

IC50 [nM]	Compound
170	O=c1[nH]c2cnc(-n3cnc4ccccc43)nc2n1C1CCOc2ccccc21 (racemic)
1000	O=c1[nH]c2cnc(-n3cnc4ccc(F)cc43)nc2n1Cc1cccc(F)c1F
560	O=c1[nH]c2cnc(-n3cnc4ccc(C(F)(F)F)cc43)nc2n1C1CCOCC1
500	O=c1[nH]c2cnc(-n3cnc4ccccc43)nc2n1C1CCOc2ccc(Cl)cc21 (racemic)
333	O=c1[nH]c2cnc(-n3cnc4ccccc43)nc2n1[C@@H]1CCOc2c(F)cccc21
1550	N#Cc1ccc2ncn(-c3ncc4[nH]c(=O)n(Cc5c(Cl)cccc5Cl)c4n3)c2c1
83	O=c1[nH]c2cnc(-n3cnc4ccccc43)nc2n1C1CCOc2ccc(F)cc21 (racemic)
470	N#Cc1ccc2ncn(-c3ncc4[nH]c(=O)n(C5CCOCC5)c4n3)c2c1
3400	O=c1[nH]c2cnc(-n3cnc4ccc(F)cc43)nc2n1C1CCOCC1
1800	O=c1[nH]c2cnc(-n3cnc4cc(C(F)(F)F)ccc43)nc2n1C1CCOCC1
95	O=c1[nH]c2cnc(-n3cnc4ccccc43)nc2n1C1CCOc2cc(F)ccc21 (racemic)
5	N#Cc1ccc2ncn(-c3ncc4[nH]c(=O)n([C@@H]5CCOc6c(F)cccc65)c4n3)c2c1
393	O=c1[nH]c2cnc(-n3cnc4ccc(Cl)cc43)nc2n1C1CCOCC1
97	O=c1[nH]c2cnc(-n3cnc4ccccc43)nc2n1C1CCOc2cccc(F)c21 (racemic)
285	O=c1[nH]c2cnc(-n3cnc4ccccc43)nc2n1C1CCOc2c(F)cccc21 (racemic)
56	O=c1[nH]c2cnc(-n3cnc4ccc(Cl)cc43)nc2n1[C@@H]1CCOc2c(F)cccc21
320	O=c1[nH]c2cnc(-n3cnc4ccc(F)cc43)nc2n1Cc1c(F)cccc1F
28	N#Cc1ccc2ncn(-c3ncc4[nH]c(=O)n(Cc5c(F)cccc5F)c4n3)c2c1
7000	O=c1[nH]c2cnc(-n3cnc4ccccc43)nc2n1[C@H]1CCOc2c(F)cccc21
270	N#Cc1ccc2ncn(-c3ncc4[nH]c(=O)n(Cc5cccc(F)c5F)c4n3)c2c1
